Key:
[1] = pH-metric titration, acid-base behavior (UV-vis, HypSpec); assay type: physicochemical; details: pH 7
Description: pH-metric titrations were performed in order to assess K3F acidity and predict the most abundant species in physiological condition. […] Overall protonation constants (βHL) were calculated from spectrophotometric data and optimized by means of HypSpec software (Supplementary Table S1). K3F23, K3F24 and K3F33 behaved as weak monoprotic acids, with a pKa value close to 8–8.50 associated to the keto-enol moiety. As for the other two ligands, namely K3F21 and K3F31, the acid-base equilibria were more complex in view of the polyprotic nature of the compounds, and three logβLH values were calculated. Species distribution curves (Supplementary Figure S2) provided reliable prediction of neutral and charged forms as function of pH, and consequently helped to envisage cell penetration and distribution in physiological conditions. […] As for K3F21 and K3F31, they behaved as less weak acids, in fact at pH 7 58% of K3F21 and 65% of K3F31 were found in the mono-dissociated negatively charged form (H2L^−), these percentages increased up to 74% and 86% respectively at pH 7.4. […] This outcome could be attributed to the stabilizing effect of the intramolecular hydrogen bond between the methoxyl and hydroxyl groups on the aromatic ring in the indissociated form of K3F21, which shifts the equilibrium in favor of the neutral species (H3L).
UV-vis spectrophotometric measurements were performed using Jasco V-570 spectrophotometer at 25.0 ± 0.1 °C in the 200–600 nm spectral range employing 1 cm quartz cells. Owing to the poor water solubility of the compounds, a methanol mother solution (5 × 10^−3 M) was diluted in water in order to give 50 µM solutions used for pH-metric titrations. The pH value was varied by adding small amounts of concentrated NaOH or HCl, 25 points in the pH range 3–10. A constant ionic strength of 0.1 M (NaNO3) was maintained in all the experiments. Each titration was performed at least three times. The overall protonation constants (logβLH) were evaluated from spectrophotometric data using the software HypSpec.

[2] = Antioxidant activity (DPPH assay); details: [DPPH] = 60 µM, methanol, 120 min; read-out: IC50, DPPH radical scavenging
Description: The antioxidant activity of the compounds was evaluated in terms of hydrogen donating or radical scavenging ability, using the stable DPPH radical (1,1-diphenyl-2-picrylhydrazyl radical). A variable amount (15, 30, 45, 75, 105, and 150 µL) of a methanol solution (1.2 mM) of each compound was placed in a cuvette, and 3 mL of a 60 µM methanol solution of DPPH was added. Absorbance measurements were initiated immediately. The decrease in absorbance at 517 nm was monitored every minute up to 5′, then every 5′ up to 30′ and every 30′ until reaction reaches completion and absorbance stabilizes attaining a plateau after 120′. Methanol was used to zero the spectrophotometer. The absorbance of the DPPH radical without K3F compound, i.e., the control, was measured daily, and concentration was calculated applying Equation (2) (2) [DPPH^·]=A−1.006/10970
The percentage of inhibition (%In) of the DPPH radical by each sample was calculated according to the formula (3) %In=A0−At/A0×100 where A0 represents the absorbance of the control (DPPH radical) at time 0, while At refers to the absorbance of the mixture DPPH/antioxidant at time t (120 min). Values of absorbance were corrected taking into account volume dilution and all determinations were performed in triplicate.

[3] = test system: PC3 cells; experiment: MTT cell viability assay, PC3; assay type: cell-based, Human; details: Homo sapiens, PC-3, 48 h, 48 h treatment, MTT
Description: Human prostate cancer PC3 cells (CRL 1435, ATCC, Manassas, VA, USA) were grown in Ham’s F12 nutrient medium, human prostate cancer DU145 cells (HTB-81, ATCC, Manassas, VA, USA) in RPMI 1640 medium and human colorectal carcinoma HCT116 cells (CCL-247, ATCC, Manassas, VA, USA) in IMDM medium. All media (Biowest, Nuaillé, France) were supplemented with 10% Foetal Bovine Serum (Gibco-Thermo Fisher Scientific, Waltham, MA, USA), L-glutamine, penicillin, and streptomycin (Euroclone, Milan, Italy), and grown at 37 °C in a humidified 5% CO2 atmosphere.
DMSO was used as control.
(§1) The inhibition of cell proliferation was measured by colorimetric MTT assay and the concentration at which cellular growth is inhibited by 50% (GI50) was determined. Briefly, cells were seeded into 96-well plates at a density of 2000 cells/well. The following day, cells were treated with the indicated compounds and analyzed for cell viability after 48 h. 5 mg/mL thiazolyl blue tetrazolium bromide (Sigma-Aldrich, St. Louis, MO, USA) was added to each well at a final concentration of 0.5 mg/mL and the plates were incubated at 37 °C for 2 h. Medium containing unconverted MTT was removed and 100 µL MTT solvent (4 mM HCl, 0.1% NP-40 in isopropyl alcohol) was added to each well. The plate was gently rotated on an orbital shaker in the dark for 15 min, before the measurements of absorbance at 570 nm. The viability of untreated cells was arbitrarily set at 100%.

[4] = test system: PC3 cells; experiment: Western blot of total cellular lysates, PC3; assay type: cell-based, Human; details: PC3, 48 h at GI50 dose
Description: (§4) Actin was used as loading control. Whole-cell protein extracts were prepared by resuspending cells into 1X SDS sample buffer (25 mM Tris-HCl pH 6.8, 1.5 mM EDTA, 20% glycerol, 2% SDS, 5% β-mercaptoethanol, 0.0025% Bromophenol blue). Equivalent amounts of cellular extracts were resolved by SDS-PAGE, electrotransferred to PVDF membrane (GE Healthcare Italia, Milan, Italy) and immunoblotted with the following primary antibodies: anti-phospo-H2AX (sc-101696), anti-p53 (DO1) (sc-126), anti-actin ([MUT]) (sc-1616) and anti-PARP (sc-8007) antibody from Santa Cruz Biotecnology, Inc, Dallas, TX, USA.; phospho-specific AKT antibody S473 (#9018) and T308 (#9275), Akt antibody (#9272 and #2967), phospho-specific ERK1/2 antibody T202/Y204 (#4370), ERK1/2 antibody (#4669), phospho-specific p38 MAPK antibody T180/Y182 (#9211), and p38 antibody (#9212) were purchased from Cell Signaling Technologies, Danvers, MA, USA. Membranes were blotted and scanned with Bio-Rad ChemiDocTM Touch Imaging System (Bio-Rad, Hercules, CA, USA), using chemiluminescent detection reagents from Cyanagen, Bologna, Italy (Westar ηC and Supernova HRP substrates for Western blotting).

[5] = test system: DU145 cells; experiment: Western blot of total cellular lysates, DU145; assay type: cell-based, Human; details: DU145, 48 h at GI50 dose
Description: as §4

[6] = test system: PC3 cells; experiment: Cell migration (wound) assay, PC3; assay type: cell-based, Human; details: PC3, GI50 dose, 40 h
Description: (§2) 4 × 10^5 prostate cancer cells were plated in a 12-well plate. Approximately 24 h later, when the cells were 100% confluent, the monolayer was scratched using a 200 µL pipette tip. […] Three biological replicates were performed. Three random pictures were taken for each treated well per experiment and the areas of the wounds measured using ImageJ software. The percentage of wound recovery was then calculated using the formula: (final area-initial area)/initial area × 100%.

[7] = test system: DU145 cells; experiment: Cell migration (wound) assay, DU145; assay type: cell-based, Human; details: DU145, GI50 dose, 16 h
Description: as §2

[8] = test system: DU145 cells; experiment: K3F21/docetaxel co-administration, MTT and CompuSyn, DU145; assay type: cell-based, Human; details: 48 h
Description: as §1
(§3) The ability of K3F21 and docetaxel to act synergistically with regard to growth inhibition was determined using CompuSyn software (ComboSyn, Inc., freely available at http://www.combosyn.com). Combination index (CI) and drug reduction index (DRI) were calculated for each concentration of drugs mixture, as indicated in the text. CI <1, =1 or >1 indicates synergism, additive effect, or antagonism, respectively. DRI >1 or <1 indicates favorable or not favorable dose-reduction.

[9] = test system: PC3 cells; experiment: K3F21/docetaxel co-administration, MTT and CompuSyn, PC3; assay type: cell-based, Human; details: PC3, K3F21/DTX combinations
Description: as §1, §3

In the case of COc1cc(/C=C/C(=O)C(CCCN2C(=O)c3ccccc3C2=O)C(=O)/C=C/c2ccc(O)c(OC)c2)ccc1O [K3F21], the “mono-dissociated negatively charged form (H2L−)” value [1] is reported as 58%, the IC50 [2] is reported as 24 µM and the GI50 [3] is reported as 7.9 µM. The ERK1/2 phosphorylation [4] was “increased”, the phospho-p38 expression [4] was “inhibited” and the “phosphorylation of AKT in Ser473 and Thr308” value [4] was “inhibited”. For the same molecule, the “γH2AX expression (marker of DNA damage)” value [4] was “triggered DNA damage”, the ERK1/2 phosphorylation [5] was “increased” and the “PARP-1 cleavage (apoptotic cell death)” value [5] was “activation of apoptotic cell death”. The phospho-p38 expression [5] was “no changes were observed”, the “γH2AX expression (marker of DNA damage)” value [5] was “triggered DNA damage” and the “cell migration (wound recovery)” value [6] was “exerted inhibitory effects on the migratory capacity”. For the same molecule, the “cell migration (wound recovery)” value [7] was “exerted inhibitory effects on the migratory capacity”, the “cell viability of co-administration compared to independent treatments” value ([8]; DU145, K3F21 and DTX 20nM) was “significant decrease in cell viability” and the “Combination Index (CI)” value ([8]; DU145, K3F21 co-administered with DTX 20nM) was 0.8. For the same molecule, the “cell growth of co-administration compared to single administration” value [9] was “none of the evaluated K3F21/DTX combinations affected cell growth”.
